The values below come from patent US11220482B2, “Aminopyridinemethanol compounds and their use” (UNIVERSITE AMIENS PICARDIE JULES VERNE, priority 2017, dated 2022).

One experiment has as its system Plasmodium falciparum W2. The experiment can be described thus: Plasmodium falciparum susceptibility assay, first round (SYBR Green I). It is filed as cell-based.
The test system of experiment [1] is Plasmodium falciparum 3D7. The experiment is described as above. It is filed as cell-based.
A further experiment concerns P. falciparum 3D7. The experiment can be described thus: P. falciparum growth inhibition assay, second round (SYBR Green I, ICEstimator). It is filed as cell-based, Plasmodium falciparum.
Setting [2] is: W2, first round, 48-h incubation, strain resistant to CQ, sensitive to MQ, read-out: IC50 (nM) Plasmodium falciparum W2 (converted).
Where [3] appears, read: 3D7, first round, 48-h incubation, strain susceptible to CQ, decreased susceptibility to MQ, read-out: IC50 (nM) Plasmodium falciparum 3D7 (converted).
Where [4] appears, read: 48 h, read-out: IC50 (nM) Plasmodium falciparum 3D7 (converted).
The mark [5] stands for this setting: Plasmodium falciparum, 3D7, 48 h.

Structures can show the parent of a compound that is named as a salt. Where two headings read alike, the source gives them in different places.

Turning to `O[C@H](CNCCCN1CCN(C(c2ccccc2)c2ccccc2)CC1)c1cc(-c2ccc(C(F)(F)F)cc2)nc(C(F)(F)F)c1` [1m•HCl, (S)-2-((3-(4-benzhydrylpiperazin-1-yl)propyl)amino)-1-(2-(trifluoromethyl)-6-(4-(trifluoromethyl)phenyl)pyridin-4-yl)ethanol hydrochloride], the IC50 in the experiment with Plasmodium falciparum W2 (setting [2]) is 67 ± 9.3 nM.

On to `O[C@@H](CNCCCN1CCN(C(c2ccccc2)c2ccccc2)CC1)c1cc(-c2ccc(C(F)(F)F)cc2)nc(C(F)(F)F)c1` [1n•HCl, (R)-2-((3-(4-benzhydrylpiperazin-1-yl)propyl)amino)-1-(2-(trifluoromethyl)-6-(4-(trifluoromethyl)phenyl)pyridin-4-yl)ethanol hydrochloride], for which the IC50 in experiment [1] (setting [3]) is 125 nM.

`CCN(CC)CCCC(C)Nc1ccnc2cc(Cl)ccc12` (centres unmarked) [CQ, Chloroquine, reference compound]: the IC50 was found to be 199 ± 27 nM in the experiment with Plasmodium falciparum W2 (W2, 48 h, read-out: IC50 (nM) Plasmodium falciparum W2) and 75.9 ± 3 nM in experiment [1] (3D7, 48 h, read-out: IC50 (nM) Plasmodium falciparum 3D7).

Take `CCCCCNC[C@H](O)c1cc(-c2ccc(C(F)(F)F)cc2)nc(C(F)(F)F)c1` [Compound 1b, (R)-2-(Pentylamino)-1-(2-(trifluoromethyl)-6-(4-(trifluoromethyl)phenyl)pyridin-4-yl)ethanol]: the IC50 with Plasmodium falciparum W2 (setting [2]) was 7.2 nM; in experiment [1] (setting [3]), 41.8 nM.

Regarding `CCCCCCNC[C@@H](O)c1cc(-c2ccc(C(F)(F)F)cc2)nc(C(F)(F)F)c1` [Compound 1c, (S)-2-(Hexylamino)-1-(2-(trifluoromethyl)-6-(4-(trifluoromethyl)phenyl)pyridin-4-yl)ethanol], the IC50 in experiment [1] (setting [3]) was 47.1 ± 13.2 nM.

Regarding `CCCCCCNC[C@H](O)c1cc(-c2ccc(C(F)(F)F)cc2)nc(C(F)(F)F)c1` [Compound 1d, (R)-2-(Hexylamino)-1-(2-(trifluoromethyl)-6-(4-(trifluoromethyl)phenyl)pyridin-4-yl)ethanol], the IC50 in the experiment on Plasmodium falciparum W2 (setting [2]) was 8.3 nM; in experiment [1] (setting [3]) it was 32.3 nM.

Take `CCCCCCCNC[C@@H](O)c1cc(-c2ccc(C(F)(F)F)cc2)nc(C(F)(F)F)c1` [Compound 1e, (S)-2-(Heptylamino)-1-(2-(trifluoromethyl)-6-(4-(trifluoromethyl)phenyl)pyridin-4-yl)ethanol]: the IC50 was 5.6 nM in the experiment on Plasmodium falciparum W2 (setting [2]) and 17.7 nM in experiment [1] (setting [3]).

As for `CCCCCCCNC[C@H](O)c1cc(-c2ccc(C(F)(F)F)cc2)nc(C(F)(F)F)c1` [Compound 1f, (R)-2-(Heptylamino)-1-(2-(trifluoromethyl)-6-(4-(trifluoromethyl)phenyl)pyridin-4-yl)ethanol], the IC50 with Plasmodium falciparum W2 (setting [2]) is 3.5 nM; in experiment [1] (setting [3]), 54.4 nM.

In the case of `O[C@H](CNCCNC(c1ccccc1)c1ccccc1)c1cc(-c2ccc(C(F)(F)F)cc2)nc(C(F)(F)F)c1` [Compound 1g, (S)-2-((2-(Benzhydrylamino)ethyl)amino)-1-(2-(trifluoromethyl)-6-(4-(trifluoromethyl)phenyl)pyridin-4-yl)ethanol], the IC50 is 13.1 ± 1 nM with Plasmodium falciparum W2 (setting [2]) and 22.4 ± 2.5 nM in experiment [1] (setting [3]).

On to `O[C@@H](CNCCNC(c1ccccc1)c1ccccc1)c1cc(-c2ccc(C(F)(F)F)cc2)nc(C(F)(F)F)c1` [Compound 1h, (R)-2-((2-Benzhydrylamino)ethylamino)-1-(2-(trifluoromethyl)-6-(4-(trifluoromethyl)phenyl)pyridin-4-yl)ethanol], for which the IC50 was 5.9 nM in the experiment with Plasmodium falciparum W2 (setting [2]) and 25 nM in experiment [1] (setting [3]).

As to `COC[C@H](Cc1ccccc1)NC[C@H](O)c1cc(-c2ccc(C(F)(F)F)cc2)nc(C(F)(F)F)c1` [Compound 1j, (R)-2-(((S)-1-Methoxy-3-phenylpropan-2-yl)amino)-1-(2-(trifluoromethyl)-6-(4-(trifluoromethyl)phenyl)pyridin-4-yl)ethanol], the IC50 was 14.4 nM in the experiment with Plasmodium falciparum W2 (setting [2]) and 32.8 nM in experiment [1] (setting [3]).

In the case of `O[C@H](CNCCCN1CCN(C(c2ccccc2)c2ccccc2)CC1)c1cc(-c2ccc(C(F)(F)F)cc2)nc(C(F)(F)F)c1` [Compound 1m, (S)-2-((3-(4-benzhydrylpiperazin-1-yl)propyl)amino)-1-(2-(trifluoromethyl)-6-(4-(trifluoromethyl)phenyl)pyridin-4-yl)ethanol], the half-inhibitory concentration (IC50) in experiment [1] (setting [3]) is 126 nM.

`O[C@H](CNCCCC(F)(F)F)c1cc(-c2ccc(C(F)(F)F)cc2)nc(C(F)(F)F)c1` [Compound 1o, (S)-2-((4,4,4-trifluorobutyl)amino)-1-(2-(trifluoromethyl)-6-(4-(trifluoromethyl)phenyl)pyridin-4-yl)ethan-1-ol]: the concentration for half-maximal inhibition (IC50) was 39.3 ± 5.83 nM with P. falciparum 3D7 (setting [4]) and < 50 nM in the experiment with P. falciparum 3D7 (setting [5]).

As for `O[C@@H](CNCCCC(F)(F)F)c1cc(-c2ccc(C(F)(F)F)cc2)nc(C(F)(F)F)c1` [Compound 1p, (R)-2-((4,4,4-trifluorobutyl)amino)-1-(2-(trifluoromethyl)-6-(4-(trifluoromethyl)phenyl)pyridin-4-yl)ethan-1-ol], the values for the IC50 in the experiment on P. falciparum 3D7 (setting [4]) and in the experiment with P. falciparum 3D7 (setting [5]) were 43 nM and < 50 nM, respectively.

Turning to `O[C@H](CNCCCCCCF)c1cc(-c2ccc(C(F)(F)F)cc2)nc(C(F)(F)F)c1` [Compound 1q, (S)-2-((6-fluorohexyl)amino)-1-(2-(trifluoromethyl)-6-(4-(trifluoromethyl)phenyl)pyridine-4-yl)ethan-1-ol], the values for the IC50 in the experiment on P. falciparum 3D7 (setting [4]) and in the experiment on P. falciparum 3D7 (setting [5]) were 31.4 nM and < 50 nM, respectively.

Consider `O[C@H](CN[C@H](COCC1CC1)Cc1ccccc1)c1cc(-c2ccc(C(F)(F)F)cc2)nc(C(F)(F)F)c1` [Compound 1u, (S)-2-(((S)-1-(cyclopropylmethoxy)-3-phenylpropan-2-yl)amino)-1-(2-(trifluoromethyl)-6-(4-(trifluoromethyl)phenyl)pyridin-4-yl)ethan-1-ol], for which the IC50 with P. falciparum 3D7 (setting [5]) is 9.31 ± 2.16 nM.

With `CCCCNC[C@@H](O)c1ccc(-c2ccc(C(F)(F)F)cc2)nc1C(F)(F)F` [Compound 30a, (S)-2-(Butylamino)-1-(2-(trifluoromethyl)-6-(4-(trifluoromethyl)phenyl)pyridin-3-yl)ethanol], the IC50 in the experiment on Plasmodium falciparum W2 (setting [2]) was 132 ± 10.3 nM; in experiment [1] (setting [3]), 479 ± 38.2 nM.

Take `CCCCNC[C@H](O)c1ccc(-c2ccc(C(F)(F)F)cc2)nc1C(F)(F)F` [Compound 30b]: the IC50 with Plasmodium falciparum W2 (setting [2]) was 523 nM; in experiment [1] (setting [3]), 1380 nM.

For the molecule `CCCCCNC[C@H](O)c1ccc(-c2ccc(C(F)(F)F)cc2)nc1C(F)(F)F` [Compound 30d, (R)-2-(Pentylamino)-1-(2-(trifluoromethyl)-6-(4-(trifluoromethyl)phenyl)pyridin-3-yl)ethanol], the values for the IC50 (with Plasmodium falciparum W2 (setting [2]); in experiment [1] (setting [3])) were 551 nM and 558 nM, respectively.

Take `CCCCCCNC[C@@H](O)c1ccc(-c2ccc(C(F)(F)F)cc2)nc1C(F)(F)F` [Compound 30e, (S)-2-(Hexylamino)-1-(2-(trifluoromethyl)-6-(4-(trifluoromethyl)phenyl)pyridin-3-yl)ethanol]: the IC50 with Plasmodium falciparum W2 (setting [2]) was 27.2 ± 9.3 nM; in experiment [1] (setting [3]) it was 170 ± 24 nM.

Turning to `CCCCCCNC[C@H](O)c1ccc(-c2ccc(C(F)(F)F)cc2)nc1C(F)(F)F` [Compound 30f, (R)-2-(Hexylamino)-1-(2-(trifluoromethyl)-6-(4-(trifluoromethyl)phenyl)pyridin-3-yl)ethanol], the IC50 with Plasmodium falciparum W2 (setting [2]) is 523 nM; in experiment [1] (setting [3]), 575 nM.

As to `CCCCCCCNC[C@@H](O)c1ccc(-c2ccc(C(F)(F)F)cc2)nc1C(F)(F)F` [Compound 30g, (S)-2-(Heptylamino)-1-(2-(trifluoromethyl)-6-(4-(trifluoromethyl)phenyl)pyridin-3-yl)ethanol], the IC50 with Plasmodium falciparum W2 (setting [2]) is 25.2 ± 1.2 nM; in experiment [1] (setting [3]), 97 ± 14 nM.

For the molecule `CCCCCCCNC[C@H](O)c1ccc(-c2ccc(C(F)(F)F)cc2)nc1C(F)(F)F` [Compound 30h, (R)-2-(Heptylamino)-1-(2-(trifluoromethyl)-6-(4-(trifluoromethyl)phenyl)pyridin-3-yl) ethanol], the IC50 in the experiment on Plasmodium falciparum W2 (setting [2]) was 31.7 nM; in experiment [1] (setting [3]), 519 nM.

`O[C@H](CNCCNC(c1ccccc1)c1ccccc1)c1ccc(-c2ccc(C(F)(F)F)cc2)nc1C(F)(F)F` [Compound 30i, (S)-2-((2-(Benzhydrylamino)ethyl)amino)-1-(2-(trifluoromethyl)-6-(4-(trifluoromethyl)phenyl)pyridin-3-yl)ethanol]: the IC50 is 248 ± 36 nM with Plasmodium falciparum W2 (setting [2]) and 32.9 nM in experiment [1] (setting [3]).

`O[C@@H](CNCCNC(c1ccccc1)c1ccccc1)c1ccc(-c2ccc(C(F)(F)F)cc2)nc1C(F)(F)F` [Compound 30j, (R)-2-((2-(Benzhydrylamino)ethyl)amino)-1-(2-(trifluoromethyl)-6-(4-(trifluoromethyl)phenyl)pyridin-3-yl)ethanol]: the IC50 is 171 nM in the experiment with Plasmodium falciparum W2 (setting [2]) and 92.1 nM in experiment [1] (setting [3]).

As for `COC[C@H](Cc1ccccc1)NC[C@@H](O)c1ccc(-c2ccc(C(F)(F)F)cc2)nc1C(F)(F)F` [Compound 30k, (S)-2-(((S)-1-methoxy-3-phenylpropan-2-yl)amino)-1-(2-(trifluoromethyl)-6-(4-(trifluoromethyl)phenyl)pyridin-3-yl)ethanol], the IC50 in the experiment on Plasmodium falciparum W2 (setting [2]) was 351 ± 50.7 nM; in experiment [1] (setting [3]), 65.3 ± 8.4 nM.

`COC[C@H](Cc1ccccc1)NC[C@H](O)c1ccc(-c2ccc(C(F)(F)F)cc2)nc1C(F)(F)F` [Compound 30l, (R)-2-(((S)-1-methoxy-3-phenylpropan-2-yl)amino)-1-(2-(trifluoromethyl)-6-(4-(trifluoromethyl)phenyl)pyridin-3-yl)ethanol]: the results for the IC50 (with Plasmodium falciparum W2 (setting [2]); in experiment [1] (setting [3])) were 258 nM and 414 nM, respectively.

In the case of `O[C@H](CNCCCN1CCN(C(c2ccccc2)c2ccccc2)CC1)c1ccc(-c2ccc(C(F)(F)F)cc2)nc1C(F)(F)F` [Compound 30o], the values for the 50% inhibitory concentration (IC50) (with Plasmodium falciparum W2 (setting [2]); in experiment [1] (setting [3])) were 212 ± 38.6 nM and 111 ± 8.3 nM, respectively.

Consider `O[C@@H](CNCCCN1CCN(C(c2ccccc2)c2ccccc2)CC1)c1ccc(-c2ccc(C(F)(F)F)cc2)nc1C(F)(F)F` [Compound 30p, (R)-2-((3-(4-Benzhydrylpiperazin-1-yl)propyl)amino)-1-(2-(trifluoromethyl)-6-(4-(trifluoromethyl)phenyl)pyridin-3-yl)ethanol], for which the IC50 in the experiment on Plasmodium falciparum W2 (setting [2]) was 89.6 nM; in experiment [1] (setting [3]), 84.9 nM.
